{"source": "patent US20190263765A1", "about": "“SYNERGISTIC ANTICOAGULANT COMPOSITION” (priority 2018, published 2019)", "origin": "cited, not measured here", "conditions": "background statement", "data": [{"smiles": "O=c1oc2ccccc2c(O)c1C1CC(c2ccc(-c3ccc(Br)cc3)cc2)Cc2ccccc21", "note": "(centres unmarked) [brodifacoum]", "values": [{"measurement": "clearance from the body (in words)", "value": "requires months"}]}, {"smiles": "CC(=O)CC(c1ccccc1)c1c(O)c2ccccc2oc1=O", "note": "(centres unmarked) [warfarin]", "values": [{"measurement": "clearance from the body", "value": "72 to 96", "unit": "h"}]}]}
